From patent US11787769B2 (priority 2019, dated 2023) come the findings set out here.

Read-outs that look alike come from different tables or passages of the source.

Common to all, as to test: microbe, parasite or virus in culture
The subject of experiment [1] is influenza A virus (HA of H5N1, Goose/Qinghai/59/05). The experiment is classed as cell-based. Conditions: for inhibition at 12.5 µM: H5N1, A549, 12.5 μM, read-out: H5N1 pseudotype assay % inhibition at 12.5 μM.
Experiment [2] deals with PR8-PB2-Gluc, influenza A/Puerto Rico/8/1934 (PR8) H1N1 virus. It counts as cell-based. Conditions: read-out: EC50 (nM), antiviral activity in the infectious IAV.
A further experiment concerns PR8-NS1-Gluc virus. It counts as cell-based, influenza A PR8.
The mark [3] stands for this setting: read-out: H5N1 pseudotype assay EC50.
[4] abbreviates: Influenza A virus, H5N1, A549, read-out: H5N1 pseudotype assay EC50 (μM).
Where [5] appears, read: Influenza A virus, PR8, MDCK, 48 h.

By inhibition is commonly meant the share of the control response that was lost under treatment. Regarding `CC(C)N1CCC(NC(=O)c2ccccc2C(F)(F)F)CC1` [Compound 3, N-(1-Isopropylpiperidin-4-yl)-2-(trifluoromethyl)benzamide], the inhibition at 12.5 µM in experiment [1] (Influenza A virus) amounted to 31%.

The term EC50 denotes the concentration needed to bring the measured effect to its halfway point. With `CC(C)N1CC[C@H](NC(=O)c2c(Cl)cccc2Cl)[C@@H](F)C1` [Compound 29, 2,6-Dichloro-N-((3S,45)-3-fluoro-1-isopropylpiperidin-4-yl)benzamide], the EC50 in experiment [2] was determined as 885 ± 50 nM; in experiment [1] (setting [3]), 1.81 ± 0.45 µM. Also, the “H5N1 pseudotype assay % inhibition at 12.5 μM” value in experiment [1] (12.5 μM) was 87%.

Regarding `CC(C)N1CCCC(NC(=O)c2c(Cl)cccc2Cl)CC1` (centres unmarked) [Compound 23, 2,6-Dichloro-N-(1-isopropylazepan-4-yl)benzamide], in experiment [1] (Influenza A virus), the inhibition at 12.5 µM is 71%.

Consider `CO[C@H]1CN(C(C)C)CC[C@H]1NC(=O)c1c(Cl)cccc1Cl` [Compound 28, 2,6-Dichloro-N-((3S,4R)-1-isopropyl-3-methoxypiperidin-4-yl)benzamide], for which the inhibition at 12.5 µM in experiment [1] (Influenza A virus) came to 64%.

Regarding `CC(C)(C)N1CCC(NC(=O)c2c(Cl)cccc2Cl)CC1` [Compound 13, N-(1-(tert-Butyl)piperidin-4-yl)-2,6-dichlorobenzamide], the EC50 was found to be 113 ± 18 nM in experiment [2] (Influenza A virus, MDCK) and 0.51 ± 0.04 µM in experiment [1] (setting [4]). For the same molecule, the inhibition at 12.5 µM in experiment [1] (Influenza A virus) stood at 99%.

As to `CC(C)CN1CCC(NC(=O)c2c(Cl)cccc2Cl)CC1` [Compound 14, 2,6-Dichloro-N-(1-isobutylpiperidin-4-yl)benzamide], the EC50 worked out at 852 ± 79 nM in experiment [2] (Influenza A virus, MDCK) and 2.15 ± 0.64 µM in experiment [1] (setting [4]). The inhibition at 12.5 µM in experiment [1] (Influenza A virus) was found to be 89%.

Consider `CC(C)CN1CCC(NC(=O)c2ccc(C(F)(F)F)cc2Cl)CC1` [Compound 17, 2-Chloro-N-(1-isobutylpiperidin-4-yl)-4-(trifluoromethyl)benzamide], for which, in experiment [1] (Influenza A virus), the inhibition at 12.5 µM was 73%.

As for `CC(C)N1CCC(NC(=O)c2ccc([N+](=O)[O-])cc2Cl)CC1` [Compound 4, 2-Chloro-N-(1-isopropylpiperidin-4-yl)-4-nitrobenzamide], the EC50 was determined as 211 ± 43 nM in experiment [2] (Influenza A virus, MDCK) and 0.72 ± 0.09 µM in experiment [1] (setting [4]). Besides, in experiment [1] (Influenza A virus), the inhibition at 12.5 µM came out at 97%.

For the molecule `CC(C)N1CCC(NC(=O)c2c(Cl)cccc2C(F)(F)F)CC1` [Compound 2, 2-Chloro-N-(1-isopropylpiperidin-4-yl)-6-(trifluoromethyl)benzamide], the EC50 in experiment [2] (Influenza A virus, MDCK) amounted to 587 ± 140 nM; in experiment [1] (setting [4]), 5.62 ± 2.16 µM. Also, the inhibition at 12.5 µM in experiment [1] (Influenza A virus) stood at 85%.

As to `O=C(NC1CCN(C2CCC2)CC1)c1c(Cl)cccc1Cl` [Compound 12, 2,6-Dichloro-N-(1-cyclobutylpiperidin-4-yl)benzamide], the inhibition at 12.5 µM in experiment [1] (Influenza A virus) was 76%.

On to `CC(C)N1CCN(C(=O)c2c(Cl)cccc2Cl)CC1` [Compound 25, (2,6-Dichlorophenyl)-(4-isopropylpiperazin-l-yl)methanone], for which the “H5N1 pseudotype assay % inhibition at 12.5 μM” value in experiment [1] was 4%.

`CC(C)N1CC[C@@H](NC(=O)c2ccc(C(F)(F)F)cc2Cl)[C@@H](F)C1` [Compound 34, 2-Chloro-N-((3S,4R)-3-fluoro-1-isopropylpiperidin-4-yl)-4-(trifluoromethyl)benzamide]: the EC50 was found to be 195 ± 49 nM in experiment [2] (Influenza A virus, MDCK) and 0.67 ± 0.2 µM in experiment [1] (setting [4]). Moreover, the inhibition at 12.5 µM in experiment [1] (Influenza A virus) was 99%.

For `CC(C)N1CCCC(NC(=O)c2c(Cl)cccc2Cl)C1` (centres unmarked) [Compound 20, 2,6-Dichloro-N-(1-isopropylpiperidin-3-yl)benzamide], the inhibition at 12.5 µM in experiment [1] (Influenza A virus) is 14%.

As to `CC(C)N1CC[C@H](NC(=O)c2ccc(C(F)(F)F)cc2Cl)[C@H](F)C1` [Compound 32, 2-Chloro-N-((3R,45)-3-fluoro-1-isopropylpiperidin-4-yl)-4-(trifluoromethyl)benzamide], the figures for the 50% effective concentration (EC50) in experiment [2] and in experiment [1] (setting [3]) were 263 ± 33 nM and 0.63 ± 0.48 µM, respectively. In addition, in experiment [1] (12.5 μM), the “H5N1 pseudotype assay % inhibition at 12.5 μM” value is 99%.

A word on the EC30: it is the point of the concentration-response curve where the effect stands at 30%. A word on the EC70: it is the point of the concentration-response curve where the effect stands at 70%. High values mean a need for much substance, low ones an effect from little substance. For orientation: EC80 means the point of the concentration-response curve where the effect stands at 80%. Low values mean greater potency, high ones weaker potency. A word on the EC90: it is the point of the concentration-response curve where the effect stands at 90%. Consider `CCC(CC)O[C@@H]1C=C(C(=O)O)C[C@H](N)[C@H]1NC(C)=O` [Oseltamivir carboxylate, reference compound], for which, in the experiment on PR8-NS1-Gluc virus, the “EC30” value is 160 nM, the “EC40” value stood at 229 nM, the “EC60” value worked out at 441 nM and the “EC70” value is reported as 629 nM. The “EC80” value in the experiment with PR8-NS1-Gluc virus was 972 nM. In the experiment on PR8-NS1-Gluc virus (setting [5]), a half-maximal response (EC50) required 318 nM and it took 1870 nM to reach the 90% level (EC90). The EC50 in experiment [2] (Influenza A virus, MDCK) worked out at 181 ± 69 nM.

For `CC(C)N1CCC(C)(NC(=O)c2c(Cl)cccc2Cl)CC1` [Compound 27, 2,6-Dichloro-N-(1-isopropyl-4-methylpiperidin-4-yl)benzamide], the inhibition at 12.5 µM in experiment [1] (Influenza A virus) was found to be 75%.

`CC(C)N1CCC(N(Cc2ccccc2)C(=O)c2c(Cl)cccc2Cl)CC1` [Compound 10, N-Benzyl-2,6-dichloro-N-(1-isopropylpiperidin-4-yl)benzamide]: the “H5N1 pseudotype assay % inhibition at 12.5 μM” value in experiment [1] (12.5 μM) is on record as 64%. Besides, in experiment [1] (Influenza A virus), the inhibition at 12.5 µM was 67%.

As to `CC(C)N1CCC(NC(=O)c2c(Cl)cccc2Cl)C(F)(F)C1` (centres unmarked) [Compound 30, 2,6-Dichloro-N-(3,3-difluoro-1-isopropylpiperidin-4-yl)benzamide], the inhibition at 12.5 µM in experiment [1] (Influenza A virus) was found to be 77%.

On to `CC(C)N1CCC(CNC(=O)c2c(Cl)cccc2Cl)CC1` [Compound 21, 2,6-Dichloro-N-((1-isopropylpiperidin-4-yl)methyl)benzamide], for which, in experiment [1] (Influenza A virus), the inhibition at 12.5 µM was 23%.

For the molecule `O=C(NC1CCN(C2CC2)CC1)c1c(Cl)cccc1Cl` [Compound 11, 2,6-Dichloro-N-(1-cyclopropylpiperidin-4-yl)benzamide], the inhibition at 12.5 µM in experiment [1] (Influenza A virus) is 33%.

Regarding `CC(C)N1CCC(NC(=O)c2ncc(C(F)(F)F)cc2Cl)CC1` [Compound 7, 3-Chloro-N-(1-isopropylpiperidin-4-yl)-5-(trifluoromethyl)picolinamide], the inhibition at 12.5 µM in experiment [1] (Influenza A virus) was determined as 76%.

On to `CC(C)N1CCC(N(C)C(=O)c2c(Cl)cccc2Cl)CC1` [Compound 9, 2,6-Dichloro-N-(1-isopropylpiperidin-4-yl)-N-methylbenzamide], for which the EC50 in experiment [2] (Influenza A virus, MDCK) was 724 ± 36 nM; in experiment [1] (setting [4]), 4.45 µM. In experiment [1] (Influenza A virus), the inhibition at 12.5 µM is 91%.

Take `CC(C)N1CCC(NC(=O)c2ccc(C(F)(F)F)cc2Cl)CC1` [Compound 5, 2-Chloro-N-(1-isopropylpiperidin-4-yl)-4-(trifluoromethyl)benzamide]: the EC50 in experiment [2] (Influenza A virus, MDCK) came out at 380 ± 182 nM; in experiment [1] (setting [4]) it was 0.36 ± 0.05 µM. Besides, the inhibition at 12.5 µM in experiment [1] (Influenza A virus) was found to be 99%.

Consider `CC(C)N1CCC(NS(=O)(=O)c2ccc(Cl)cc2Cl)CC1` [Compound 19, 2,4-Dichloro-N-(1-isopropylpiperidin-4-yl)benzenesulfonamide], for which the inhibition at 12.5 µM in experiment [1] (Influenza A virus) amounted to 1%.

Regarding `CC(C)N1CCC2(CC1)OCCN2C(=O)c1c(Cl)cccc1Cl` [Compound 26, (2,6-Dichlorophenyl)-(8-isopropyl-1-oxa-4,8-diazaspiro[4.5]decan-4-yl)methanone], in experiment [1] (Influenza A virus), the inhibition at 12.5 µM was determined as 19%.

For `O=C(NC1CCN(C2CCCCC2)CC1)c1ccc(C(F)(F)F)cc1Cl` [Compound 18, 2-Chloro-N-(1-cyclohexylpiperidin-4-yl)-4-(trifluoromethyl)benzamide], the EC50 in experiment [2] (Influenza A virus, MDCK) amounted to 505 ± 174 nM; in experiment [1] (setting [4]), 0.91 ± 0.25 µM. In experiment [1] (Influenza A virus), the inhibition at 12.5 µM was 98%.

In the case of `CC(C)N1CC[C@H](NC(=O)c2ccc(C(F)(F)F)cc2Cl)[C@@H](F)C1` [Compound 31, 2-Chloro-N-((3S,45)-3-fluoro-1-isopropylpiperidin-4-yl)-4-(trifluoromethyl)benzamide], the values for the EC50 in experiment [2] and in experiment [1] (setting [3]) were 324 ± 105 nM and 1.16 ± 0.67 µM, respectively. Moreover, the “H5N1 pseudotype assay % inhibition at 12.5 μM” value in experiment [1] (12.5 μM) amounted to 93%.

For the molecule `CC(C)N1CCC(NC(=O)c2ncccc2Cl)CC1` [Compound 8, 3-Chloro-N-(1-isopropylpiperidin-4-yl)picolinamide], the inhibition at 12.5 µM in experiment [1] (Influenza A virus) amounted to 40%.

For `CC(C)N1CCC(NC(=O)c2c(Cl)cccc2Cl)CC1` [Compound 1, 2,6-Dichloro-N-(1-isopropylpiperidin-4-yl)benzamide], the EC50 in experiment [2] (Influenza A virus, MDCK) turned out to be 272 ± 37 nM; in experiment [1] (setting [4]), 3.04 ± 1.13 µM. For the same molecule, the inhibition at 12.5 µM in experiment [1] (Influenza A virus) came to 90%.

On to `CC(C)N1CCC(NC(=O)c2ncc(Cl)cc2Cl)CC1` [Compound 6, 3,5-Dichloro-N-(1-isopropylpiperidin-4-yl)picolinamide], for which the inhibition at 12.5 µM in experiment [1] (Influenza A virus) amounted to 39%.

As to `CC(C)N1CC[C@@H](NC(=O)c2ccc(C(F)(F)F)cc2Cl)[C@H](F)C1` [Compound 33, 2-Chloro-N-((3R,4R)-3-fluoro-1-isopropylpiperidin-4-yl)-4-(trifluoromethyl)benzamide], the concentration giving a half-maximal response (EC50) in experiment [2] (Influenza A virus, MDCK) amounted to 989 ± 323 nM; in experiment [1] (setting [4]), 2.93 ± 0.3 µM. For the same molecule, the inhibition at 12.5 µM in experiment [1] (Influenza A virus) worked out at 87%.

For `CC(C)N1CC2C(C1)C2NC(=O)c1c(Cl)cccc1Cl` (centres unmarked) [Compound 24, 2,6-Dichloro-N-(3-isopropyl-3-azabicyclo[3. 1.0]hexan-6-yl)benzamide], the inhibition at 12.5 µM in experiment [1] (Influenza A virus) stood at 61%.

Consider `CC(C)N1CCC(NC(=O)c2c(Cl)cccc2Cl)C1` (centres unmarked) [Compound 22, 2,6-Dichloro-N-(1-isopropylpyrrolidin-3-yl)benzamide], for which the inhibition at 12.5 µM in experiment [1] (Influenza A virus) amounted to 11%.

On to `O=C(NC1CCN(C2COC2)CC1)c1c(Cl)cccc1Cl` [Compound 15, 2,6-Dichloro-N-(1-(oxetan-3-yl)piperidin-4-yl)benzamide], for which the inhibition at 12.5 µM in experiment [1] (Influenza A virus) was 7%.
